Columns and labels:
Pseudomonas aeruginosa = test: Antibacterial activity against Pseudomonas aeruginosa 260-97103 infected in Galleria mellonella larvae assessed as survival of larvae up to 50 mg/kg measured after 24 hrs relative to control; assay type: functional, organism-based; conditions: dose mg/kg <=50, time 24.0 hrs
[1] = Cytotoxicity against human HEK293 cells assessed as cell viability at 12 uM incubated for 48 hrs by prestoblue assay; assay type: cell-based; conditions: read-out: Activity
[2] = Cytotoxicity against human HepG2 cells assessed as cell viability at 12 uM incubated for 48 hrs by prestoblue assay; assay type: cell-based; conditions: read-out: Activity
[3] = Toxicity in Galleria mellonella larvae assessed as larval […] at 100 mg/kg measured after 24 hrs; assay type: organism-based; conditions: in vivo

## COLISTIN
Pseudomonas aeruginosa
  Survival: > 50%

## COc1cccc2c1C(=O)c1c(O)c3c(c(O)c1C2=O)C[C@@](O)(C(=O)CO)C[C@@H]3O[C@H]1C[C@H](N)[C@H](O)[C@H](C)O1 [DOXORUBICIN]
[1]
  viability at 48 h, 12 µM: < 10%
[2]
  viability at 48 h, 12 µM: < 10%

## C[C@@H](O)[C@H]1C(=O)N2C(C(=O)O)=C(S[C@@H]3CN[C@H](C(=O)N(C)C)C3)[C@H](C)[C@H]12 [MEROPENEM]
[3]
  mortality at 24 h: 100%
